Blank lines part the entries; values can stand above or below the compound they belong to.
Molecular target: T1, Bcl-2 protein (Recombinant Human Bcl-2 Protein) (Homo sapiens, UniProt P10415)
T1 construct: purchased Novus NBP2-34889
Assay: Binding evaluation of mixture library compounds to Bcl-2 using AS-MS (affinity selection mass spectrometry)
Conditions: for ASMS ratio (%) n = 1: replicate n = 1; for ASMS ratio (%) n = 1 / ASMS ratio (%) n = 2: ASMS Ratio(%)=(A−C)/B×100; for ASMS ratio (%) n = 2: replicate n = 2
In short: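 Readout is ASMS Ratio (%), (A−C)/B×100, from reversed-phase LC/MS of SEC-passed extracts, with protein-free unfiltered standard (B) and protein-free SEC blank (C). Recombinant human Bcl-2 at 20 μM final met ~1200 pooled compounds at […] each for 1 h, 23° C., dark, in Tris-HCl pH 7.4 buffer.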

[1] = AS-MS on the mixture of 1200 library compounds
[2] = AS-MS, mixture of 1200 compounds, Bcl-2

T1 sequence (P10415 whole entry): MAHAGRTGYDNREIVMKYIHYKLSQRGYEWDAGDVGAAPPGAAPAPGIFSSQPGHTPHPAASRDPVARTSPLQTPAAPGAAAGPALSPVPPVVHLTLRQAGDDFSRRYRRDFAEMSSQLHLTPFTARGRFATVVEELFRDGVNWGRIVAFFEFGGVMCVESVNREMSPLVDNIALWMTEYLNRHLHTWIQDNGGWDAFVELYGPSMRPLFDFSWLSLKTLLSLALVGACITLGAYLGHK

Compound: CCOc1cncc(-c2cc(CN3CCN(c4ccc(C(=O)NCC56CC7CC(CC(C7)C5)C6)nn4)CC3)cc(OC(F)(F)F)c2)c1 [B1A090-01, N-(1-Adamantylmethyl)-6-[4-[[3-(5-ethoxypyridin-3-yl)-5-(trifluoromethoxy)phenyl]methyl]piperazin-1-yl]pyridazine-3-carboxamide]
- ASMS ratio (%) n = 1 [2]: 3.3%
- ASMS ratio (%) n = 2 [2]: −1.0%

Compound: CCOc1cccc(-c2ccc(CN3CCN(c4ccc(C(=O)N(CC)CC)cc4)CC3)cc2F)c1 [B4J051-01, 4-[4-[[4-(3-Ethoxyphenyl)-3-fluorophenyl]methyl]piperazin-1-yl]-N,N-diethylbenzamide]
- ASMS ratio (%) n = 1 [1]: −9.6%
- ASMS ratio (%) n = 2 [1]: −10.2%

Compound: CCOc1cncc(-c2cc(CN3CCN(c4ccc(C(=O)NCC(F)(F)F)cc4)CC3)cc(OC(F)(F)F)c2)c1 [B1K064-01, 4-[4-[[3-(5-Ethoxypyridin-3-yl)-5-(trifluoromethoxy)phenyl]methyl]piperazin-1-yl]-N-(2,2,2-trifluoroethyl)benzamide]
- ASMS ratio (%) n = 1 [2]: 1.4%
- ASMS ratio (%) n = 2 [2]: 0.7%

Compound: 6-[4-[[3-Ethoxy-5-(5-ethoxypyridin-3-yl)phenyl]methyl]piperazin-1-yl]-N-propylpyridazine-3-carboxamide [B1M012-01]
- ASMS ratio (%) n = 1 [2]: −3.5%
- ASMS ratio (%) n = 2 [2]: −2.3%

Compound: CCOc1cncc(-c2ccc(C(=O)N3CCN(c4ccc(C(=O)NCC(F)(F)F)cc4)CC3)c3ccccc23)c1 [B1K036-01, 4-[4-[4-(5-Ethoxypyridin-3-yl)naphthalene-1-carbonyl]piperazin-1-yl]-N-(2,2,2-trifluoroethyl)benzamide]
- ASMS ratio (%) n = 1 [2]: 1.1%
- ASMS ratio (%) n = 2 [2]: −0.4%

Compound: CCOc1cccc(C#Cc2ccccc2C(=O)N2CCN(c3ccc(C(=O)NCC45CC6CC(CC(C6)C4)C5)nn3)CC2)c1 [B1A007-01, N-(1-Adamantylmethyl)-6-[4-[2-[2-(3-ethoxyphenyl)ethynyl]benzoyl]piperazin-1-yl]pyridazine-3-carboxamide]
- ASMS ratio (%) n = 1 [2]: 0.0%

Compound: CCOc1cccc(-c2ccc(CN3CCN(c4ccc(C(=O)NCC56CC7CC(CC(C7)C5)C6)nn4)CC3)c(OC)c2)c1 [B1A079-01, N-(1-Adamantylmethyl)-6-[4-[[4-(3-ethoxyphenyl)-2-methoxyphenyl]methyl]piperazin-1-yl]pyridazine-3-carboxamide]
- ASMS ratio (%) n = 1 [2]: 3.9%
- ASMS ratio (%) n = 2 [2]: −3.9%

Compound: CCOc1cncc(-c2ccc(CN3CCN(c4ccc(C(=O)NS(=O)(=O)C(C)(C)C)cc4)CC3)c(CC)c2)c1 [B2L050-01]
- ASMS ratio (%) (n = 1): 0.0%
- ASMS ratio (%) (n = 2): 0.0%

Compound: CCOc1cncc(-c2cc(OC)c(CN3CCN(c4ccc(C(=O)NCC(F)(F)F)cc4)CC3)c(OC)c2)c1 [B1K060-01]
- ASMS ratio (%) n = 1 [2]: 0.0%
- ASMS ratio (%) n = 2 [2]: 0.0%

Compound: CCOc1cncc(-c2ccc(CN3CCN(c4ccc(C(=O)NS(=O)(=O)C(C)(C)C)cc4)CC3)cc2F)c1 [B2L052-01]
- ASMS ratio (%) (n = 1): 2.7%
- ASMS ratio (%) (n = 2): 1.0%

Compound: 4-[4-[3-[2-(5-Ethoxypyridin-3-yl)phenyl]propanoyl]piperazin-1-yl]-N-propylbenzamide [B1M078-01]
- ASMS ratio (%) n = 1 [2]: 0.0%
- ASMS ratio (%) n = 2 [2]: 0.0%

Compound: CCOc1cncc(-c2ccc(CN3CCN(c4ccc(C(=O)NCC56CC7CC(CC(C7)C5)C6)cc4)CC3)c(CC)c2)c1 [B1A050-01, N-(1-Adamantylmethyl)-4-[4-[[4-(5-ethoxypyridin-3-yl)-2-ethylphenyl]methyl]piperazin-1-yl]benzamide]
- ASMS ratio (%) n = 1 [2]: 0.6%
- ASMS ratio (%) n = 2 [2]: 3.0%

The remaining lines, values ahead:

- ASMS ratio (%) n = 1 (AS-MS, mixture library, Bcl-2): 0.0%
- ASMS ratio (%) n = 2 (AS-MS, mixture library, Bcl-2): 0.0%
Compound: CCOc1cccc(-c2ccc(CN3CCN(c4ccc(C(=O)N(CC)CC)nn4)CC3)c(OC)c2)c1 [B4J079-01, 6-[4-[[4-(3-Ethoxyphenyl)-2-methoxyphenyl]methyl]piperazin-1-yl]-N,N-diethylpyridazine-3-carboxamide]

- ASMS ratio (%) n = 1 [1]: 1.9%
- ASMS ratio (%) n = 2 [1]: 4.2%
Compound: CCOc1cccc(-c2ccccc2CCC(=O)N2CCN(c3ccc(C(=O)Nc4ccc(OC)cc4)cc3)CC2)c1 [B1O033-01, 4-[4-[3-[2-(3-Ethoxyphenyl)phenyl]propanoyl]piperazin-1-yl]-N-(4-methoxyphenyl)benzamide]

- ASMS ratio (%) n = 1 [1]: 2.8%
- ASMS ratio (%) n = 2 [1]: −0.7%
Compound: CCOc1cncc(-c2cc(C(=O)N3CCN(c4ccc(C(=O)Nc5ccc(OC)cc5)cc4)CC3)cc(C(C)(C)C)c2)c1 [B1O038-01, 4-[4-[3-tert-Butyl-5-(5-ethoxypyridin-3-yl)benzoyl]piperazin-1-yl]-N-(4-methoxyphenyl)benzamide]

- ASMS ratio (%) (n = 1): 0.9%
- ASMS ratio (%) (n = 2): 0.0%
Compound: CCOc1cccc(-c2cc(CN3CCN(c4ccc(C(=O)NS(C)(=O)=O)cc4)CC3)cc(OC(F)(F)F)c2)c1 [B2I063-01, 4-[4-[[3-(3-Ethoxyphenyl)-5-(trifluoromethoxy)phenyl]methyl]piperazin-1-yl]-N-methylsulfonylbenzamide]

- ASMS ratio (%) n = 1 (AS-MS, mixture library, Bcl-2): 0.0%
- ASMS ratio (%) n = 2 (AS-MS, mixture library, Bcl-2): 0.0%
Compound: CCOc1cncc(C#Cc2ccccc2C(=O)N2CCN(c3ccc(C(=O)NS(C)(=O)=O)nn3)CC2)c1 [B2I008-01, 6-[4-[2-[2-(5-Ethoxypyridin-3-yl)ethynyl]benzoyl]piperazin-1-yl]-N-methylsulfonylpyridazine-3-carboxamide]

- ASMS ratio (%) n = 1 (AS-MS, mixture library, Bcl-2): 0.0%
- ASMS ratio (%) n = 2 (AS-MS, mixture library, Bcl-2): 0.0%
Compound: CCOc1cncc(-c2ccc(CN3CCN(c4ccc(C(=O)N(CC)CC)nn4)CC3)cc2C)c1 [B4J074-01, 6-[4-[[4-(5-Ethoxypyridin-3-yl)-3-methylphenyl]methyl]piperazin-1-yl]-N,N-diethylpyridazine-3-carboxamide]

- ASMS ratio (%) (n = 2): −63.9%
Compound: CCOc1cncc(-c2cc(CN3CCN(c4ccc(C(=O)NS(=O)(=O)c5ccc(NCCSc6ccccc6)c(C(F)(F)F)c5)cc4)CC3)cc(OCC)c2)c1 [B2R056-01, 4-[4-[[3-Ethoxy-5-(5-ethoxypyridin-3-yl)phenyl]methyl]piperazin-1-yl]-N-[4-(2-phenylsulfanylethylamino)-3-(trifluoromethyl)phenyl]sulfonylbenzamide]

- ASMS ratio (%) (n = 1): 0.2%
- ASMS ratio (%) (n = 2): −3.2%
Compound: CCOc1cncc(-c2ccc(CN3CCN(c4ccc(C(=O)NS(C)(=O)=O)nn4)CC3)c(CC)c2)c1 [B2I076-01, 6-[4-[[4-(5-Ethoxypyridin-3-yl)-2-ethylphenyl]methyl]piperazin-1-yl]-N-methylsulfonylpyridazine-3-carboxamide]

- ASMS ratio (%) n = 1 [1]: 3.8%
- ASMS ratio (%) n = 2 [1]: 2.1%
Compound: CCOc1cccc(-c2ccc(C(=O)N3CCN(c4ccc(C(=O)Nc5ccc(OC)cc5)cc4)CC3)cc2F)c1 [B1O027-01, 4-[4-[4-(3-Ethoxyphenyl)-3-fluorobenzoyl]piperazin-1-yl]-N-(4-methoxyphenyl)benzamide]

- ASMS ratio (%) n = 1 [1]: −0.4%
- ASMS ratio (%) n = 2 [1]: −4.5%
Compound: CCOc1cccc(-c2ccc(C(=O)N3CCN(c4ccc(C(=O)Nc5ccc(OC)cc5)cc4)CC3)cc2C)c1 [B1O025-01, 4-[4-[4-(3-Ethoxyphenyl)-3-methylbenzoyl]piperazin-1-yl]-N-(4-methoxyphenyl)benzamide]

- ASMS ratio (%) n = 1 [1]: 1.7%
- ASMS ratio (%) n = 2 [1]: −1.8%
Compound: CCOc1cncc(-c2ccc(CN3CCN(c4ccc(C(=O)N(C)CC56CC7CC(CC(C7)C5)C6)nn4)CC3)c(OC)c2)c1 [B3A080-01, N-(1-Adamantylmethyl)-6-[4-[[4-(5-ethoxypyridin-3-yl)-2-methoxyphenyl]methyl]piperazin-1-yl]-N-methylpyridazine-3-carboxamide]

- ASMS ratio (%) n = 1 (AS-MS, mixture library, Bcl-2): 0.0%
- ASMS ratio (%) n = 2 (AS-MS, mixture library, Bcl-2): 0.0%
Compound: CCOc1cncc(-c2cc(C(=O)N3CCN(c4ccc(C(=O)NS(C)(=O)=O)nn4)CC3)cc(C(C)(C)C)c2)c1 [B2I016-01, 6-[4-[3-tert-Butyl-5-(5-ethoxypyridin-3-yl)benzoyl]piperazin-1-yl]-N-methylsulfonylpyridazine-3-carboxamide]

- ASMS ratio (%) (n = 1): 18.0%
- ASMS ratio (%) (n = 2): 0.0%
Compound: CCOc1cccc(C#Cc2cc(C(=O)N3CCN(c4ccc(C(=O)NS(=O)(=O)c5ccc(NCCSc6ccccc6)c(C(F)(F)F)c5)cc4)CC3)cc(C(F)(F)F)c2)c1 [B2R041-01, 4-[4-[3-[2-(3-Ethoxyphenyl)ethynyl]-5-(trifluoromethyl)benzoyl]piperazin-1-yl]-N-[4-(2-phenylsulfanylethylamino)-3-(trifluoromethyl)phenyl]sulfonylbenzamide]

- ASMS ratio (%) (n = 1): 2.6%
- ASMS ratio (%) (n = 2): 0.2%
Compound: CCOc1cncc(-c2cc(C(=O)N3CCN(c4ccc(C(=O)NS(=O)(=O)c5ccc(NCCSc6ccccc6)c(C(F)(F)F)c5)cc4)CC3)cc(C(F)(F)F)c2)c1 [B2R040-01, 4-[4-[3-(5-Ethoxypyridin-3-yl)-5-(trifluoromethyl)benzoyl]piperazin-1-yl]-N-[4-(2-phenylsulfanylethylamino)-3-(trifluoromethyl)phenyl]sulfonylbenzamide]

- ASMS ratio (%) (n = 1): 0.0%
- ASMS ratio (%) (n = 2): 0.0%
Compound: CCOc1cccc(-c2ccc(C(C)N3CCN(c4ccc(C(=O)NS(=O)(=O)CCC(F)(F)F)cc4)CC3)c(F)c2)c1 (centres unmarked) [B2N099-01, 4-[4-[1-[4-(3-Ethoxyphenyl)-2-fluorophenyl]ethyl]piperazin-1-yl]-N-(3,3,3-trifluoropropylsulfonyl)benzamide]

- ASMS ratio (%) n = 2 [1]: 0.0%
Compound: CCOc1cncc(-c2cc(CN3CCN(c4ccc(C(=O)N(C)CC56CC7CC(CC(C7)C5)C6)cc4)CC3)cc(OCC)c2)c1 [B3A056-01, N-(1-Adamantylmethyl)-4-[4-[[3-ethoxy-5-(5-ethoxypyridin-3-yl)phenyl]methyl]piperazin-1-yl]-N-methylbenzamide]

— patent publication US20240132431A1, “METHOD FOR ALKYLATING ACIDIC FUNCTIONAL GROUP” (Chugai Seiyaku Kabushiki Kaisha, priority 2021, published 2024)
